The record followed here is US9669034B2, “4-aryl-N-phenyl-1,3,5-triazin-2-amines containing a sulfoximine group” (BAYER INTELLECTUAL PROPERTY GMBH, priority 2011, dated 2017).

As a reminder, the IC50 is the concentration at which inhibition is half-maximal. A higher IC50 goes with a need for much substance.

In assay [1] the target is CDK9/CycT1 (Homo sapiens (Human), UniProt P50750). As to the kind of experiment: CDK9/CycT1 kinase assay (TR-FRET). In kind it is biochemical. The settings on record: Method 1. From the text: 1. CDK9/CycT1 Kinase Assay:
CDK9/CycT1—inhibitory activity of compounds of the present invention was quantified employing the CDK9/CycT1 TR-FRET assay as described in the following paragraphs:
Recombinant full-length His-tagged human CDK9 and CycT1, expressed in insect cells and purified by Ni-NTA affinity chromatography, were purchased from Invitrogen (Cat. No PV4131). As substrate for the kinase reaction biotinylated peptide biotin-Ttds-[…]
On the technique in general: In TR-FRET formats the signal depends on donor and acceptor labels being close together.

In assay [2] the target is CDK2/CycE (Homo sapiens (Human), UniProt P24941). As to the kind of experiment: CDK2/CycE kinase assay (TR-FRET). In kind it is biochemical. The settings on record: Method 2. From the text:
2. CDK2/CycE Kinase Assay:
CDK2/CycE—inhibitory activity of compounds of the present invention was quantified employing the CDK2/CycE TR-FRET assay as described in the following paragraphs:
Recombinant fusion proteins of GST and human CDK2 and of GST and human CycE, expressed in insect cells (Sf9) and purified by Glutathion-Sepharose affinity chromatography, were purchased from ProQinase GmbH (Freiburg, Germany). As substrate for the kinase reaction biotinylated peptide biotin-Ttds-[…]

Where [3] appears, read: unit cell empty (table: nM or μM).

Sequence of CDK9/CycT1 (P50750 whole entry): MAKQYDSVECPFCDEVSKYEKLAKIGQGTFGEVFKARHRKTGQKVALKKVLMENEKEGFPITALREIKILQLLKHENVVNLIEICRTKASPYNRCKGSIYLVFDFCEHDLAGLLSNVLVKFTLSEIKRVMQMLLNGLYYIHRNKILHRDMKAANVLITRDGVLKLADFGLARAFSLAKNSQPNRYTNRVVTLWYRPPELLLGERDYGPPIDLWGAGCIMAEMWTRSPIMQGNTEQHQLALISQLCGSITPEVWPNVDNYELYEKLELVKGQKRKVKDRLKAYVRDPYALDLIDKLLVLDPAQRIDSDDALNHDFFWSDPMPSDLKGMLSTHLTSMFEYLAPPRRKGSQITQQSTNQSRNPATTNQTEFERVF
Sequence of CDK9/CycT1 (O60563 whole entry partner): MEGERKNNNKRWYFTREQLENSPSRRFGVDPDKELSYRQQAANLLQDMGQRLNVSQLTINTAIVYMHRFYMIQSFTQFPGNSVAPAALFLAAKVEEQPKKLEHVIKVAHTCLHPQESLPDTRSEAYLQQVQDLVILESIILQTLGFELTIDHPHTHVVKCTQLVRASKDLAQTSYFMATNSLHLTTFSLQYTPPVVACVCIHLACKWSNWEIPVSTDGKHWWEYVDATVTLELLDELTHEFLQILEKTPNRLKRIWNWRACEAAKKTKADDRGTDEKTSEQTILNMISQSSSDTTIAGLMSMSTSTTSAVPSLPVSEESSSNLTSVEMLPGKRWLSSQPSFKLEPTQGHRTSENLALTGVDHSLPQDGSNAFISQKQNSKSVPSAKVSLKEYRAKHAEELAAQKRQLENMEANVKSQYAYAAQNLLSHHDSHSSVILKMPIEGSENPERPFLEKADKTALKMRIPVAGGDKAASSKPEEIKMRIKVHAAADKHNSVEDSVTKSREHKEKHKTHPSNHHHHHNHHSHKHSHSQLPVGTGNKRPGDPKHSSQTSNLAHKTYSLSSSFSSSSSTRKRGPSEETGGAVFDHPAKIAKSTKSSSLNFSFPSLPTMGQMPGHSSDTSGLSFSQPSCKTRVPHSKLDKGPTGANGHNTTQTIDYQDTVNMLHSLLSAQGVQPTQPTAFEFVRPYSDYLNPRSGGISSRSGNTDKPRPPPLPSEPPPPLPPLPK

Regarding `CCS(=N)(=O)Cc1cccc(Nc2ncnc(-c3ccc(F)cc3OC)n2)c1` (single isomer, unassigned) [Example 110, N-{3-[(S-ethylsulfonimidoyl)methyl]phenyl}-4-(4-fluoro-2-methoxyphenyl)-1,3,5-triazin-2-amine], the values for the IC50 in assay [1] (setting [3]) and in assay [2] (setting [3]) were 9 nM and 1100 nM, respectively.

Consider `COc1cc(Cl)ccc1-c1ncnc(Nc2cccc(CS(C)(=N)=O)c2)n1` (single isomer, unassigned) [Example 13, 4-(4-Chloro-2-methoxyphenyl)-N-{3-[(S-methylsulfonimidoyl)methyl]phenyl}-1,3,5-triazin-2-amine], for which the IC50 was found to be 93 nM in assay [1] and 9500 nM in assay [2].

As for `CS(=N)(=O)Cc1cccc(Nc2ncnc(-c3ccc(F)cc3OCc3ccccn3)n2)c1` (racemic) [Example 67, (rac)-4-[4-Fluoro-2-(pyridin-2-ylmethoxy)phenyl]-N-{3-[(S-methylsulfonimidoyl)methyl]phenyl}-1,3,5-triazin-2-amine], the IC50 in assay [1] amounted to 97 nM; in assay [2], 6900 nM.

Regarding `CCOC(=O)N=S(C)(=O)Cc1cccc(Nc2ncnc(-c3cccc4c3OCC4)n2)c1` (racemic) [Example 33, (rac)-Ethyl [(3-{[4-(2,3-dihydro-1-benzofuran-7-yl)-1,3,5-triazin-2-yl]amino}benzyl)(methyl)oxido-λ^6-sulfanylidene]carbamate], the values for the IC50 in assay [1] and in assay [2] were 21 nM and 3100 nM, respectively.

Regarding `COc1ccccc1-c1ncnc(Nc2cccc(CS(C)(=N)=O)c2)n1` (single isomer, unassigned) [Example 27, 4-(2-Methoxyphenyl)-N-{3-[(S-methylsulfonimidoyl)methyl]phenyl}-1,3,5-triazin-2-amine], the IC50 in assay [1] amounted to 100 nM; in assay [2] it was 7600 nM.

With `CCS(=N)(=O)Cc1cccc(Nc2ncnc(-c3ccc(F)cc3OC)n2)c1` (single isomer, unassigned) [Example 109, N-{3-[(S-ethylsulfonimidoyl)methyl]phenyl}-4-(4-fluoro-2-methoxyphenyl)-1,3,5-triazin-2-amine], the IC50 in assay [1] (setting [3]) came to 24 nM; in assay [2] (setting [3]), 780 nM.

With `CS(=N)(=O)Cc1cccc(Nc2ncnc(-c3cccc4c3OCC4)n2)c1` (racemic) [Example 34, (rac)-4-(2,3-Dihydro-1-benzofuran-7-yl)-N-{3-[(S-methylsulfonimidoyl)methyl]phenyl}-1,3,5-triazin-2-amine], the IC50 was determined as 68 nM in assay [1] and 2200 nM in assay [2].

Turning to `COc1ccccc1-c1ncnc(Nc2cccc(CS(C)(=N)=O)c2)n1` (racemic) [Example 26, (rac)-4-(2-Methoxyphenyl)-N-{3-[(S-methylsulfonimidoyl)methyl]phenyl}-1,3,5-triazin-2-amine], the values for the IC50 in assay [1] and in assay [2] were 35 nM and 4600 nM, respectively.

As to `CS(=N)(=O)Cc1cccc(Nc2ncnc(-c3ccc(F)cc3OCCC3CCOCC3)n2)c1` (racemic) [Example 57, (rac)-4-{4-Fluoro-2-[2-(tetrahydro-2H-pyran-4-yl)ethoxy]phenyl}-N-{3-[(S-methylsulfonimidoyl)methyl]phenyl}-1,3,5-triazin-2-amine], the IC50 in assay [1] was 370 nM; in assay [2] it was 8300 nM.

Regarding `CS(=N)(=O)Cc1cccc(Nc2ncnc(-c3cccc4c3OCCO4)n2)c1` (racemic) [Example 38, (rac)-4-(2,3-Dihydro-1,4-benzodioxin-5-yl)-N-{3-[(S-methylsulfonimidoyl)methyl]phenyl}-1,3,5-triazin-2-amine], the IC50 in assay [1] is 14 nM; in assay [2] it was 1600 nM.

In the case of `CS(=N)(=O)Cc1cccc(Nc2ncnc(-c3ccc(F)cc3OCc3ccccc3)n2)c1` (racemic) [Example 6, (rac)-4-[2-(Benzyloxy)-4-fluorophenyl]-N-{3-[(S-methylsulfonimidoyl)methyl]phenyl}-1,3,5-triazin-2-amine], the IC50 in assay [1] stood at 3 nM; in assay [2], 220 nM.

As for `CCOC(=O)N=S(C)(=O)Cc1cccc(Nc2ncnc(-c3cccc4c3OC(F)(F)O4)n2)c1` (racemic) [Example 18, (rac)-Ethyl [(3-{[4-(2,2-difluoro-1,3-benzodioxol-4-yl)-1,3,5-triazin-2-yl]amino}benzyl)(methyl)oxido-λ^6-sulfanylidene]carbamate], the IC50 in assay [1] amounted to 33 nM; in assay [2] it was 3900 nM.

For `CCOC(=O)N=S(C)(=O)Cc1cccc(Nc2ncnc(-c3ccccc3OCc3ccc(Cl)c(Cl)c3)n2)c1` (racemic) [Example 60, (rac)-Ethyl [{3-[(4-{2-[(3,4-dichlorobenzyl)oxy]phenyl}-1,3,5-triazin-2-yl)amino]benzyl}(methyl)oxido-λ^6-sulfanylidene]carbamate], the IC50 in assay [1] was 13 nM; in assay [2], 3300 nM.

`COc1cc(F)ccc1-c1ncnc(Nc2cc(F)cc(CS(C)(=N)=O)c2)n1` (single isomer, unassigned) [Example 53, 4-(4-Fluoro-2-methoxyphenyl)-N-{3-fluoro-5-[(S-methylsulfonimidoyl)methyl]phenyl}-1,3,5-triazin-2-amine]: half-maximal inhibition in assay [2] (IC50) was put at 540 nM.

`CC(Oc1cc(F)ccc1-c1ncnc(Nc2cccc(CS(C)(=N)=O)c2)n1)C1CCCC1` (stereo not drawn) [Example 63, 4-[2-(1-cyclopentylethoxy)-4-fluorophenyl]-N-{3-[(S-methylsulfonimidoyl)methyl]phenyl}-1,3,5-triazin-2-amine] returned an IC50 in assay [1] of 99 nM. In other words, the double-digit nanomolar range.

With `CS(=N)(=O)Cc1cccc(Nc2ncnc(-c3cccc4c3OCC4)n2)c1` (single isomer, unassigned) [Example 36, 4-(2,3-Dihydro-1-benzofuran-7-yl)-N-{3-[(S-methylsulfonimidoyl)methyl]phenyl}-1,3,5-triazin-2-amine], the IC50 in assay [1] was 50 nM; in assay [2], 2900 nM.

With `COc1cc(F)ccc1-c1ncnc(Nc2cccc(CS(=N)(=O)C3CCOCC3)c2)n1` (racemic) [Example 58, (rac)-4-(4-Fluoro-2-methoxyphenyl)-N-(3-{[S-(tetrahydro-2H-pyran-4-yl)sulfonimidoyl]methyl}phenyl)-1,3,5-triazin-2-amine], the IC50 is 89 nM in assay [1] and 5200 nM in assay [2].

For `COc1cc(F)ccc1-c1ncnc(Nc2cccc(CS(=O)(=NC#N)C3CC3)c2)n1` (racemic) [Example 113, (rac)-[Cyclopropyl(3-{[4-(4-fluoro-2-methoxyphenyl)-1,3,5-triazin-2-yl]amino}benzyl)oxido-λ^6-sulfanylidene]cyanamide], the IC50 came out at 2 nM in assay [1] and 300 nM in assay [2].

Regarding `CCOC(=O)N=S(C)(=O)Cc1cccc(Nc2ncnc(-c3cccc(Cl)c3OC)n2)c1` (racemic) [Example 45, (rac)-Ethyl [(3-{[4-(3-chloro-2-methoxyphenyl)-1,3,5-triazin-2-yl]amino}benzyl)(methyl)oxido-λ^6-sulfanylidene]carbamate], the results for the IC50 in assay [1] and in assay [2] were 820 nM and 9000 nM, respectively.

In the case of `CCOC(=O)N=S(C)(=O)Cc1cccc(Nc2ncnc(-c3ccccc3Oc3ccccc3)n2)c1` (racemic) [Example 47, (rac)-Ethyl [methyl(oxido)(3-{[4-(2-phenoxyphenyl)-1,3,5-triazin-2-yl]amino}benzyl)-λ^6-sulfanylidene]carbamate], the IC50 turned out to be 35 nM in assay [1] and 6500 nM in assay [2].

In the case of `CN=S(C)(=O)Cc1cccc(Nc2ncnc(-c3ccc(F)cc3OC)n2)c1` (racemic) [Example 41, (rac)-N-{3-[(N,S-Dimethylsulfonimidoyl)methyl]phenyl}-4-(4-fluoro-2-methoxyphenyl)-1,3,5-triazin-2-amine], the IC50 in assay [1] stood at 36 nM; in assay [2] it was 2600 nM.

For the compound `COc1ccccc1-c1ncnc(Nc2cccc(CS(C)(=N)=O)c2)n1` (single isomer, unassigned) [Example 28, 4-(2-Methoxyphenyl)-N-{3-[(S-methylsulfonimidoyl)methyl]phenyl}-1,3,5-triazin-2-amine], the results for the IC50 in assay [1] and in assay [2] were 89 nM and 5900 nM, respectively.

Take `CC(Oc1cc(F)ccc1-c1ncnc(Nc2cccc(CS(C)(=N)=O)c2)n1)c1ccc(F)cc1` (stereo not drawn) [Example 69, 4-{4-Fluoro-2-[1-(4-fluorophenyl)ethoxy]phenyl}-N-{3-[(S-methylsulfonimidoyl)methyl]phenyl}-1,3,5-triazin-2-amine]: the IC50 in assay [1] was determined as 22 nM; in assay [2], 3500 nM.

Turning to `CS(=N)(=O)Cc1cccc(Nc2ncnc(-c3cccc4c3OCC4)n2)c1` (single isomer, unassigned) [Example 35, 4-(2,3-Dihydro-1-benzofuran-7-yl)-N-{3-[(S-methylsulfonimidoyl)methyl]phenyl}-1,3,5-triazin-2-amine], the IC50 in assay [1] was found to be 64 nM; in assay [2], 3100 nM.

With `COc1cc(F)ccc1-c1ncnc(Nc2cc(F)c(F)c(CS(C)(=N)=O)c2)n1` (racemic) [Example 106, (rac)-N-{3,4-Difluoro-5-[(S-methylsulfonimidoyl)methyl]phenyl}-4-(4-fluoro-2-methoxyphenyl)-1,3,5-triazin-2-amine], the IC50 in assay [2] was determined as 400 nM.

`CCOC(=O)N=S(C)(=O)Cc1cccc(Nc2ncnc(-c3ccc(F)cc3OC)n2)c1` (racemic) [Example 1, (rac)-Ethyl [(3-{[4-(4-fluoro-2-methoxyphenyl)-1,3,5-triazin-2-yl]amino}benzyl)(methyl)oxido-λ^6-sulfanylidene]carbamate] came in with an IC50 in assay [2] of 2200 nM.
